Test results taken from ChEMBL document CHEMBL1128265, “Three-dimensional quantitative structure-activity relationship (QSAR) of HIV integrase inhibitors: a comparative molecular field analysis (CoMFA) study” (J Med Chem, 1995).
pIC50: −log10 of the molar value.

Tests used:
[1] = molecular target: T1, Human immunodeficiency virus type 1 integrase (Human immunodeficiency virus 1, UniProt Q7ZJM1)
[2] = molecular target: T1, Human immunodeficiency virus type 1 integrase; remark: listed apart in the source

T1 sequence (Q7ZJM1 whole entry): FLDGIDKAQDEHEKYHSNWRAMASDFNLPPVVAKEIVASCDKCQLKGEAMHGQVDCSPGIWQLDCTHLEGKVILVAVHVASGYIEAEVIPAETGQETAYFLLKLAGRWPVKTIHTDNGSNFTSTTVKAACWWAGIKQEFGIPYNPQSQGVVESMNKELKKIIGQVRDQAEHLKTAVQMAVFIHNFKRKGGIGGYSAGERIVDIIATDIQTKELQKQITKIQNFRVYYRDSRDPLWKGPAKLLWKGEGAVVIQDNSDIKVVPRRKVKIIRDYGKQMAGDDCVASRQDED

| SMILES | pIC50 [1] | pIC50 [2] |
| --- | --- | --- |
| C[C@@H]1O[C@@H](O)[C@H](O)[C@H](O)[C@H]1Oc1c(-c2cc(O)c(O)c(O)c2)oc2cc(O)cc(O)c2c1=O | 4.40 | 4.99 |
| CC1OC(O)C(O)C(O)C1Oc1c(-c2ccc(O)c(O)c2)oc2cc(O)cc(O)c2c1=O (centres undefined) | 4.22 | 4.41 |
| O=c1c(O)c(-c2ccc(O)c(O)c2)oc2c(O[C@@H]3O[C@@H](O)[C@@H](O)[C@H](O)[C@H]3O)c(O)cc(O)c12 | 4.16 | 4.65 |
| O=c1c(OC2COC(O)C(O)C2O)c(-c2ccc(O)c(O)c2)oc2cc(O)cc(O)c12 (centres undefined) | 4.18 | 4.60 |
| O=c1c(O)c(-c2ccc(O)cc2)oc2cc(O)cc(O)c12 [KAEMPFEROL] | 4.01 | 4.19 |
| O=c1cc(-c2ccc(O)c(O)c2)oc2cc(O)cc(O)c12 [LUTEOLIN] | 4.48 | 4.60 |
| COc1cc(O)c2c(=O)c(O)c(-c3ccc(O)c(O)c3)oc2c1 [RHAMNETIN] | 4.21 | 4.54 |
| O=c1c(O)c(-c2cc(O)c(O)c(O)c2)oc2cc(O)ccc12 [ROBINETIN] | 5.23 | 5.80 |

Now from value to molecule:

| pIC50 [1] | pIC50 [2] | SMILES |
| --- | --- | --- |
| 4.03 | 4.41 | COc1c(O)cc2oc(-c3ccc(O)c(O)c3)cc(=O)c2c1O [EUPAFOLIN] |
| 4.55 | 5.07 | O=c1c(O)c(-c2ccc(O)c(O)c2)oc2cc(O)ccc12 [FISETIN] |
| 4.12 | 4.50 | O=c1c(O)c(-c2ccc(O)cc2O)oc2cc(O)cc(O)c12 [MORIN] |
| 6.10 | 7.00 | O=c1c(O)c(-c2ccc(O)c(O)c2)oc2cc(O)c(O)c(O)c12 [QUERCETAGETIN] |
